Reference: patent US11897862B2 (Gilead Sciences, Inc., priority 2022, dated 2024)

What was measured:
IKZF1 = target: T1, IKZF1 (Homo sapiens, UniProt Q13422+Q96SW2); experiment: HEK293 HiBiT in vitro degradation of IKZF1; type: cell-based; details: for DC50 / IKZF1 Dmax: HEK293 HiBiT; for DC50: 18-24 hr incubation, normalized to DMSO control, read-out: IKZF1 EC50; for Dmax: HEK293, HEK293 HiBiT; for Dmax / IKZF1 Dmax: maximum degradation at the highest concentration tested
T1 construct: expressed in transfected cells
Method: (§1) In vitro degradation of IKZF1, IKZF2, and SALL4 was measured using HiBiT protein tagging and detection technology (Promega).
(§2) HiBit technology was used to develop the quantitative assays to measure the cellular IKZFs level by tagging an 11 amino acid HiBit peptides […] to the protein of interest. Reporter plasmids were generated by fusing a linker sequence ([…]) followed by the HiBit tag at the C-terminus of IKZF1, IKZF2, and SALL4. The fusion fragments were subsequently cloned into pcDNA5 pcDNA™5/FRT/TO plasmids (Thermo Fisher, cat #V652020) downstream of the tetracycline operator. The resulting plasmids were co-transfected with pOG44 Flp-Recombinase Expression Vector (Thermo Fisher, cat #V600520) into Flp-In™ T-REx HEK293 line (Thermo Fisher, cat #R78077) and a stable cell pool was selected by adding 100 µg/ml of Hygromycin (Thermo Fisher, cat #10687010). The reporter cell enabled Tet-On inducible reporter expression from a single copy of the integrated gene.
(§3) On Day 1, Cells were grown to ˜80% confluency in tissue culture medium (DMEM Glutamax (Gibco10569), 10% Tet free FBS (Takara 631106), and PenStrep Glutamin (Gibco 10378)) in tissue culture flasks. Doxycycline was then added to a final concentration of […] to induce reporter expression at 37° C. overnight.
(§4) On Day 2, 125 nL of serially-diluted solution of testing compounds were dispensed into 384-well white solid assay plates via ECHO acoustic liquid handler. Cells were lifted by 0.25% Trypsin (Gibco 25200) then pelleted by centrifugation (Beckman Avanti J-E) at 500×g for 5 min. Cell pellets were resuspended in TC medium at the concentration of 3e5/mL and 25 μL of cell suspension were added into each well of compound-spotted plates. The plates were returned to a 37° C. incubator overnight (18-24 hr).
(§5) On Day 3, assay plates were removed from the tissue culture incubator and 25 μL of Nano-Glo lytic detection system (Promega, cat #N3030) was added to each well. Plates were incubated at r.t. for 3 min with shaking, and luminescence was read using an Envision reader (Perkin Elmer).
(§6) To assess the IKZF1, IKZF2, and SALL4 degrader potential of exemplified compounds of this disclosure and certain Reference Compounds EC50 and Dmax values were determined for the compounds of Examples 1 to 383 and Reference Compounds A-1, B-1, B-2, B-3, B-4, and C-1 in the HiBiT assays. Asterisks (*) indicate examples for which the data shown represents an average of n≥3.

IKZF2 = IKZF2 (Homo sapiens, UniProt Q96SW2+Q9UKS7); experiment: HEK293 HiBiT in vitro degradation of IKZF2; type: cell-based; parameters: expressed in transfected cells; details: for Dmax: HEK293, HEK293 HiBiT; for Dmax / IKZF2 Dmax: maximum degradation at the highest concentration tested; for DC50 / IKZF2 Dmax: HEK293 HiBiT; for DC50: 18-24 hr incubation, normalized to DMSO control, read-out: IKZF2 EC50
Method: as §1, §2, §3, §4, §5, §6

Sequence of IKZF2 (Q9UKS7 1-500 isoform Q9UKS7-2): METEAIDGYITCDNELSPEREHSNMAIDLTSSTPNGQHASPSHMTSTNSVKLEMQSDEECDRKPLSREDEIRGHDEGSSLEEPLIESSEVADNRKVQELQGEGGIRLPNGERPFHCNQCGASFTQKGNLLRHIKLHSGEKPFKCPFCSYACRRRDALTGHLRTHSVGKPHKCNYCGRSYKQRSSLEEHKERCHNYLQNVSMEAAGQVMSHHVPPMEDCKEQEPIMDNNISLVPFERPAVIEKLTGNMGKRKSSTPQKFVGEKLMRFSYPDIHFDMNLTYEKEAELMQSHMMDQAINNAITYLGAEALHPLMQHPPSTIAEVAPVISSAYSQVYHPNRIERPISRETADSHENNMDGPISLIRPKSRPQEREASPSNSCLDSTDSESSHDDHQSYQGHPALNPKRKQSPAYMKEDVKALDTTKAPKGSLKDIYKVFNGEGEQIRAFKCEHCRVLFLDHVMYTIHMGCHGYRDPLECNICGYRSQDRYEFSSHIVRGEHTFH
Sequence of IKZF2 (Q96SW2 whole entry): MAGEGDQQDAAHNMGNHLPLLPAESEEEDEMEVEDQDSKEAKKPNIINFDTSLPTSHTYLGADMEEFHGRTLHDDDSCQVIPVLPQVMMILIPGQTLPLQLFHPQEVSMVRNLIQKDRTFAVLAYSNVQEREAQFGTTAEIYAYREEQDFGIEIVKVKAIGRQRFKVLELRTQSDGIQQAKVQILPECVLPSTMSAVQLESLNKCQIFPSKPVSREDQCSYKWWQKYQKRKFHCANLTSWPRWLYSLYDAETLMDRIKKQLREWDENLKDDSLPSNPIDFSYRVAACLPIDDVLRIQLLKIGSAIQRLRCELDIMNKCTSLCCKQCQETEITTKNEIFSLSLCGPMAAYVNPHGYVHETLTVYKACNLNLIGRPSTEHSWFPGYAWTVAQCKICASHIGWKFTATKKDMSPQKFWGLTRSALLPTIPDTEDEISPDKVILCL
Sequence of IKZF2 (Q16531 whole entry partner): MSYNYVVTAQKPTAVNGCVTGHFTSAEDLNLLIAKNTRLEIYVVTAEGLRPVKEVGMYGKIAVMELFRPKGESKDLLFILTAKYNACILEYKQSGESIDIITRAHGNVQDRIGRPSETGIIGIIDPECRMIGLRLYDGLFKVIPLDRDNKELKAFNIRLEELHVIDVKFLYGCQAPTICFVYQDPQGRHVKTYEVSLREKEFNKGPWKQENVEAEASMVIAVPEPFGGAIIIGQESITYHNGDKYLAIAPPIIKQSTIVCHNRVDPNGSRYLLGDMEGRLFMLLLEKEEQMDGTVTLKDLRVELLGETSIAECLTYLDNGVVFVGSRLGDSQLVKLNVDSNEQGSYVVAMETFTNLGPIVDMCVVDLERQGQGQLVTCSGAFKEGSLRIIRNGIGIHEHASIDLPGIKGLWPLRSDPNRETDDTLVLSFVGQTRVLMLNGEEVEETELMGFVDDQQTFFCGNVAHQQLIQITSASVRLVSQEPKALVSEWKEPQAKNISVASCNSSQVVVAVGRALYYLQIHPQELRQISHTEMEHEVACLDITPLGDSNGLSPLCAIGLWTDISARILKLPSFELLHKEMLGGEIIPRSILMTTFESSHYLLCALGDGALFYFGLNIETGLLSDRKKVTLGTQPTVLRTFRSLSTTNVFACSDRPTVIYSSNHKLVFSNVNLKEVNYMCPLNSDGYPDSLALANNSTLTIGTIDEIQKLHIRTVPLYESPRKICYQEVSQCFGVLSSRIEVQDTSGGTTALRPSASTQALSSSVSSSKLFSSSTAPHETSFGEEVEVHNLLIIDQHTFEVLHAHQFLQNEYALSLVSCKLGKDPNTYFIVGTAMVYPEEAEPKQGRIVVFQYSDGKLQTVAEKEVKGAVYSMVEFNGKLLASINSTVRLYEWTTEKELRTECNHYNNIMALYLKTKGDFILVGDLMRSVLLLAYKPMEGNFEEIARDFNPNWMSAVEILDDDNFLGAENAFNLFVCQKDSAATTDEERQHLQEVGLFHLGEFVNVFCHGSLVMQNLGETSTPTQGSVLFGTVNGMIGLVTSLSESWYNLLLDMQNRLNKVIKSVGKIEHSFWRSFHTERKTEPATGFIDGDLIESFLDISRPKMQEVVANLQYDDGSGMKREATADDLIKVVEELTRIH
T1 sequence (Q13422 whole entry): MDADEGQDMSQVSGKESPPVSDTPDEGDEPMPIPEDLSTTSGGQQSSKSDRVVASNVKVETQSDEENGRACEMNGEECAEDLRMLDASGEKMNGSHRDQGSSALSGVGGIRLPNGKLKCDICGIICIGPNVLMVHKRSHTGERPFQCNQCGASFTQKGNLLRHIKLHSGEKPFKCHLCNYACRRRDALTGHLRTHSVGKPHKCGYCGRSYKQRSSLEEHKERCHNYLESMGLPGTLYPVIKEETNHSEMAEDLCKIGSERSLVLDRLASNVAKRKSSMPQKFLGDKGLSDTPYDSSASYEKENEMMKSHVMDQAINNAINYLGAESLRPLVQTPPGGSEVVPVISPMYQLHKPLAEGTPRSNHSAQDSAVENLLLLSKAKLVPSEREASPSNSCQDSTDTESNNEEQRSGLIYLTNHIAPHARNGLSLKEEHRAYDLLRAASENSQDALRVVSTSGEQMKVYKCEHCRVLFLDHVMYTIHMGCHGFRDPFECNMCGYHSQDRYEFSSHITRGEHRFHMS
T1 sequence (Q96SW2 whole entry): as the sequence (Q96SW2 whole entry) above
T1 sequence (Q16531 whole entry partner): as the sequence (Q16531 whole entry partner) above

| Compound | DC50 (IKZF1) [nM] | Dmax (IKZF2) [%] | DC50 (IKZF2) [nM] | Dmax (IKZF1) [%] | IKZF1 Dmax (IKZF1) [%] | IKZF2 Dmax (IKZF2) [%] |
| --- | --- | --- | --- | --- | --- | --- |
| O=C1CCC(N2Cc3cc(C[C@H]4CCCC[C@@H]4N[C@@H]4CCC(F)(F)C4)ccc3C2=O)C(=O)N1 (relative stereo) [Example 302, 3-(5-(((1R,2S)-rel-2-(((R)-3,3-difluorocyclopentyl)amino)cyclohexyl)methyl)-1-oxoisoindolin-2-yl)piperidine-2,6-dione] | > 1000 | 89 | 15 | – | – | – |
| C[C@@H]1CCCC[C@H]1N[C@H]1CCCC[C@@H]1Cc1ccc2c(c1)CN(C1CCC(=O)NC1=O)C2=O (relative stereo) [Example 303] | > 1000 | 82 | 86 | – | – | – |
| O=C1CCC(N2Cc3cc(C[C@H]4CCC[C@H](O)[C@@H]4NC4CCCCC4)ccc3C2=O)C(=O)N1 (relative stereo) [Example 310, 3-(5-(((1R,2R,3S)-rel-2-(cyclohexylamino)-3-hydroxycyclohexyl)methyl)-1-oxoisoindolin-2-yl)piperidine-2,6-dione] | > 500 | 90 | 27 | – | – | – |
| O=C1CCC(N2Cc3cc(C[C@H]4CCCC[C@@H]4NCc4ccccc4)ccc3C2=O)C(=O)N1 (single isomer, unassigned) [Example 25] | > 1000 | – | 23 | – | – | – |
| [2H]c1c([2H])c([2H])c(CN[C@H]2CCCC[C@@H]2Cc2ccc3c(c2)CN(C2CCC(=O)NC2=O)C3=O)c([2H])c1[2H] (single isomer, unassigned) [Example 25] | – | 87 | – | – | – | – |
| O=C1CCC(N2Cc3cc(C[C@H]4CCCC[C@@H]4NCc4ccccc4)ccc3C2=O)C(=O)N1 (single isomer, unassigned) [Example 97] | 85 | – | 36 | – | – | – |
| [2H]C([2H])(N[C@H]1CCCC[C@@H]1Cc1ccc2c(c1)CN(C1CCC(=O)NC1=O)C2=O)c1ccccc1 (single isomer, unassigned) [Example 97] | – | 92 | – | 30 | – | – |
| O=C1CCC(N2Cc3cc(C[C@H]4CCCC[C@@H]4NCc4ccccc4)ccc3C2=O)C(=O)N1 (single isomer, unassigned) [Example 98] | > 1000 | – | 41 | – | – | – |
| [2H]c1c([2H])c([2H])c(C([2H])([2H])N[C@H]2CCCC[C@@H]2Cc2ccc3c(c2)CN(C2CCC(=O)NC2=O)C3=O)c([2H])c1[2H] (single isomer, unassigned) [Example 98] | – | 87 | – | – | – | – |
| O=C1CCC(N2Cc3cc(C[C@H]4CCCC[C@@H]4NCc4ccccc4)ccc3C2=O)C(=O)N1 (single isomer, unassigned) [Example 120] | 100 | – | 33 | – | – | – |
| [2H]c1c([2H])c([2H])c(C([2H])N[C@H]2CCCC[C@@H]2Cc2ccc3c(c2)CN(C2CCC(=O)NC2=O)C3=O)c([2H])c1[2H] (single isomer, unassigned) [Example 120] | – | 90 | – | 29 | – | – |
| O=C1CCC(N2Cc3cc(C[C@H]4CCCC[C@@H]4NC4CCC(C(F)(F)F)CC4)ccc3C2=O)C(=O)N1 (single isomer, unassigned) [Example 121] | 68 | 97 | 3 | 26 | – | – |
| O=C1CCC(N2Cc3cc(C[C@H]4CCCC[C@@H]4NC4CCC(OC(F)(F)F)CC4)ccc3C2=O)C(=O)N1 (single isomer, unassigned) [Example 146] | 168 | – | 2 | – | 34 | 95 |
| O=C1CCC(N2Cc3cc(C[C@H]4CCC[C@H](O)[C@@H]4NC4CCC(F)(F)CC4)ccc3C2=O)C(=O)N1 (single isomer, unassigned) [Example 151] | > 1000 | 87 | 22 | – | – | – |
| CC(C)OC1CCC(N[C@H]2CCCC[C@@H]2Cc2ccc3c(c2)CN(C2CCC(=O)NC2=O)C3=O)CC1 (single isomer, unassigned) [Example 167] | 77 | 97 | 2 | 36 | – | – |
| CC(C)OC1CCC(N[C@H]2CCCC[C@@H]2Cc2ccc3c(c2)CN(C2CCC(=O)NC2=O)C3=O)CC1 (single isomer, unassigned) [Example 168] | 246 | – | 3 | – | 39 | 97 |

| Compound | DC50 (IKZF1) [nM] | Dmax (IKZF2) [%] | DC50 (IKZF2) [nM] | Dmax (IKZF1) [%] | IKZF1 Dmax (IKZF1) [%] | IKZF2 Dmax (IKZF2) [%] |
| --- | --- | --- | --- | --- | --- | --- |
| CC(N[C@H]1CCCC[C@@H]1Cc1ccc2c(c1)CN(C1CCC(=O)NC1=O)C2=O)C1(F)CC1 (single isomer, unassigned) [Example 224] | > 1000 | 96 | 2 | – | – | – |
| CC(N[C@H]1CCCC[C@@H]1Cc1ccc2c(c1)CN(C1CCC(=O)NC1=O)C2=O)C1(F)CC1 (single isomer, unassigned) [Example 225] | > 500 | – | 11 | – | – | 94 |
| CC(N[C@H]1CCCC[C@@H]1Cc1ccc2c(c1)CN(C1CCC(=O)NC1=O)C2=O)C(C)(C)F (single isomer, unassigned) [Example 226] | 17 | 93 | 14 | 84 | – | – |
| CC(N[C@H]1CCCC[C@@H]1Cc1ccc2c(c1)CN(C1CCC(=O)NC1=O)C2=O)C(C)(C)F (single isomer, unassigned) [Example 227] | > 500 | – | 20 | – | – | 86 |
| CC(CC1CC1)N[C@H]1CCCC[C@@H]1Cc1ccc2c(c1)CN(C1CCC(=O)NC1=O)C2=O (single isomer, unassigned) [Example 230] | 66 | 96 | 3 | 30 | – | – |
| CC(CC1CC1)N[C@H]1CCCC[C@@H]1Cc1ccc2c(c1)CN(C1CCC(=O)NC1=O)C2=O (single isomer, unassigned) [Example 231] | > 1000 | – | 3 | – | – | 96 |
| CCC(N[C@H]1CCCC[C@@H]1Cc1ccc2c(c1)CN(C1CCC(=O)NC1=O)C2=O)C1CC1 (single isomer, unassigned) [Example 232] | > 1000 | 93 | 21 | – | – | – |
| CCC(N[C@H]1CCCC[C@@H]1Cc1ccc2c(c1)CN(C1CCC(=O)NC1=O)C2=O)C1CC1 (single isomer, unassigned) [Example 233] | > 1000 | – | 3 | – | – | 97 |
| CC(N[C@H]1CCCO[C@@H]1Cc1ccc2c(c1F)CN(C1CCC(=O)NC1=O)C2=O)C1CCC1 (single isomer, unassigned) [Example 248] | > 1000 | – | 21 | – | – | 92 |
| CC(CC(F)(F)F)N[C@H]1CCCC[C@@H]1Cc1ccc2c(c1)CN(C1CCC(=O)NC1=O)C2=O (single isomer, unassigned) [Example 249] | > 1000 | 97 | 4 | – | – | – |
| CC(N[C@H]1CCCC[C@@H]1Cc1ccc2c(c1)CN(C1CCC(=O)NC1=O)C2=O)C1CCCO1 (single isomer, unassigned) [Example 253] | > 1000 | 96 | 9 | – | – | – |
| CC(N[C@H]1CCCC[C@@H]1Cc1ccc2c(c1)CN(C1CCC(=O)NC1=O)C2=O)C1CCCO1 (single isomer, unassigned) [Example 254] | > 1000 | – | 33 | – | – | 84 |
| CC(N[C@H]1CCCC[C@@H]1Cc1ccc2c(c1)CN(C1CCC(=O)NC1=O)C2=O)C1(C#N)CC1 (single isomer, unassigned) [Example 255] | > 1000 | – | 32 | – | – | 87 |
| CC1(C)CCC(N[C@H]2CCCO[C@@H]2Cc2ccc3c(c2F)CN(C2CCC(=O)NC2=O)C3=O)C1 (single isomer, unassigned) [Example 258] | 78 | 97 | 4 | 30 | – | – |
| CC1(C)CCC(N[C@H]2CCCO[C@@H]2Cc2ccc3c(c2F)CN(C2CCC(=O)NC2=O)C3=O)C1 (single isomer, unassigned) [Example 259] | 68 | – | 11 | – | 25 | 96 |
| O=C1CCC(N2Cc3cc(C[C@H]4CCCC[C@@H]4NC4CCCOC4)ccc3C2=O)C(=O)N1 (single isomer, unassigned) [Example 260] | > 1000 | 96 | 5 | – | – | – |
